# How the values were obtained:
# [1] = target: T1, Nitric oxide synthase, inducible (Homo sapiens, UniProt P35228); assay: Compound was tested for inhibitory activity against inducible nitric oxide synthase
# Nitric oxide synthase 1 = Nitric oxide synthase 1 (Homo sapiens, UniProt P29475); assay: Compound was tested for inhibitory activity against neuronal nitric oxide synthase
# [2] = target: T1, Nitric oxide synthase, inducible; assay: Compound was tested for inhibitory activity against inducible nitric oxide synthase using L-arginine as substrate
# T1 sequence (P35228 whole entry): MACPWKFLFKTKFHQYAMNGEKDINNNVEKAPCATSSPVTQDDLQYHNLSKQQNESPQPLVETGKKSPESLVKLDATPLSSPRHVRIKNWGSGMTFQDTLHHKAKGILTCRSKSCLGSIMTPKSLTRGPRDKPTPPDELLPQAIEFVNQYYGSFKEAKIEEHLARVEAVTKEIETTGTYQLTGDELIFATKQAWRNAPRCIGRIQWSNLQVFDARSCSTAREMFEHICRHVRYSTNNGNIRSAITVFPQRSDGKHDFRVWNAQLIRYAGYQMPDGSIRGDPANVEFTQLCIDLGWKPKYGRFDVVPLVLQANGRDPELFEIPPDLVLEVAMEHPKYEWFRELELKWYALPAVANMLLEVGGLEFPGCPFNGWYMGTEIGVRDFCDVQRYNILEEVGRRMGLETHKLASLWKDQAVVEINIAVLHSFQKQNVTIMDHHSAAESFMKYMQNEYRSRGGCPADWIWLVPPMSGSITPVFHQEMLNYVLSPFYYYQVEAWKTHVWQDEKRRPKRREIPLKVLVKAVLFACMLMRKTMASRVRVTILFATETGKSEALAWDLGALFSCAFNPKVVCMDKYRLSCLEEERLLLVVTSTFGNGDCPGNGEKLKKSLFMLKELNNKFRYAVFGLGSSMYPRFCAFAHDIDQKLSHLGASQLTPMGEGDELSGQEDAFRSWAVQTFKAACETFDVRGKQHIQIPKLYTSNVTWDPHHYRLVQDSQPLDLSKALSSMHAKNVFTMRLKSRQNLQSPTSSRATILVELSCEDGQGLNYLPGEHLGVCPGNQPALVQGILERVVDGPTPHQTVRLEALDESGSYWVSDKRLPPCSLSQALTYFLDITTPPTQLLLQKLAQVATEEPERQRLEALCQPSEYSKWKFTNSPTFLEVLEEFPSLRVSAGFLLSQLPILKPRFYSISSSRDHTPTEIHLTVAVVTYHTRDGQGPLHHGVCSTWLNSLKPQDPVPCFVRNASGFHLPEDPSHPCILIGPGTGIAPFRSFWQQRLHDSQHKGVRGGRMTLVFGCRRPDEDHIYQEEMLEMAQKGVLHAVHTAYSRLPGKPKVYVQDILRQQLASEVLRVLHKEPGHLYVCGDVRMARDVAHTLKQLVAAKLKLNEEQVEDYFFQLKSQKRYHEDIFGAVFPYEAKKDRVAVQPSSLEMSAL
# Chain of Nitric oxide synthase 1 (P29475 whole entry): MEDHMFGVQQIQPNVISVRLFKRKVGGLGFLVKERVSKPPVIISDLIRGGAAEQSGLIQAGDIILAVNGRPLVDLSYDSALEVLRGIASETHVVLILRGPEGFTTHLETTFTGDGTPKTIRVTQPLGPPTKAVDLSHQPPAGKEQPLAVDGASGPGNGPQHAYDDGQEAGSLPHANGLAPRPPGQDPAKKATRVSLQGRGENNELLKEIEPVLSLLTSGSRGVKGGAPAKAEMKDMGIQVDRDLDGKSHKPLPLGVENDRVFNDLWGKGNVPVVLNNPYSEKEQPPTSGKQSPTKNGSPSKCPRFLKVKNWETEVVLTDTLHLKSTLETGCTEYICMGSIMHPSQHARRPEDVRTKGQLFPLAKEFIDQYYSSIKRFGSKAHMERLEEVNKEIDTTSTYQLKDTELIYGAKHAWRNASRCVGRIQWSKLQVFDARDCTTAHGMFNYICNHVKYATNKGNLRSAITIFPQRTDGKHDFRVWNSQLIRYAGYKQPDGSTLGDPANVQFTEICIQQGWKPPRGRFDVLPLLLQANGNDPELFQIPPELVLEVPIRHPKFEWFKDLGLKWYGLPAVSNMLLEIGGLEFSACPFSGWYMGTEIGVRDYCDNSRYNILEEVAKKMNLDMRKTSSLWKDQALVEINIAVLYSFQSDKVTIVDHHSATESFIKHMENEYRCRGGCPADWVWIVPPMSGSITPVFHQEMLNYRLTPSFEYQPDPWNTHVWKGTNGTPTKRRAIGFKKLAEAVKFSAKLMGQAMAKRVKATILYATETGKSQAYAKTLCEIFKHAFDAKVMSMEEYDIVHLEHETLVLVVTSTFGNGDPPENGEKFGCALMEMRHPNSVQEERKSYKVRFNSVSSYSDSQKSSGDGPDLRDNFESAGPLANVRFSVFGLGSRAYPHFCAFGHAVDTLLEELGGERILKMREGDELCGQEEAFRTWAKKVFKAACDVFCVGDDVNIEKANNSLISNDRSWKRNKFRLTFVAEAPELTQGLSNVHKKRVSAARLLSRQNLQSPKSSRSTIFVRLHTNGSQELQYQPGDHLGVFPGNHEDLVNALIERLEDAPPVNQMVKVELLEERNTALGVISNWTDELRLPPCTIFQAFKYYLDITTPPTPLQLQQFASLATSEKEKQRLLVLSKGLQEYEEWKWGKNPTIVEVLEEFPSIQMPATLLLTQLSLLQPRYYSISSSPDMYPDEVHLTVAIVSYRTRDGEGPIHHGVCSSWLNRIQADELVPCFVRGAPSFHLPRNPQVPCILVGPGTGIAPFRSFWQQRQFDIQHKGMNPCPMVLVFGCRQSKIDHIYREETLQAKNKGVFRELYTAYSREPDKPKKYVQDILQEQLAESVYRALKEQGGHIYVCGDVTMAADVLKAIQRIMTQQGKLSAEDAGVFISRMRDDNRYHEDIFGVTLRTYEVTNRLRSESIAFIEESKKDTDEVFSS
SMILES,IC50 [1] [µM],IC50 (Nitric oxide synthase 1) [µM],Ks [2] [µM]
NC(N)=NCCC[C@H](N)B(O)O,50,300,200
CC(=O)N[C@@H](CCCN=C(N)N)B(O)O,> 500,> 500,
